Laboratory results reported in US20110020849A1, “BIOMARKERS FOR DIAGNOSTIC AND THERAPEUTIC METHODS” (Wayne State University, priority 2007, published 2011).
Each block holds one compound with its values, some of them ahead of it.

Columns and labels:
rabbit RBCs = test: Deformation-induced ATP release from rabbit RBCs pumped through microbore tubing (luciferin/luciferase chemiluminescence); type: cell-based
Description: (§1) Preparation of RBCs. Rabbits (New Zealand whites, males, 2.0-2.5 kg) were anesthetized with ketamine ([…], i.m.) and xylazine (1 mg/kg, i.m.) followed by pentobarbital sodium (15 mg/kg i.v.). A cannula was placed in the trachea and the animals were ventilated with room air. A catheter was placed into a carotid artery for administration of heparin and for phlebotomy. After heparin (500 units, i.v.), the animals were exsanguinated. Human blood was obtained by venipuncture without the use of a tourniquet (antecubital fossa) and collected into a heparinized syringe. Blood was centrifuged at 500×g at 4° C. for 10 min. The plasma and buffy coat were discarded. The RBCs were resuspended and washed three times in a physiological salt solution [PSS, containing in mM: 4.7 KCl, 2.0 CaCl2, 140.5 NaCl […], 21.0 tris(hydroxymethyl)aminomethane, 11.1 dextrose with 5% bovine serum albumin (final pH 7.4)]. Cells were prepared on the day of use and experiments were finished within 8 hours of removal from the animal or human subjects. All procedures were approved by the Animal Investigation Committee or the Human Investigation Committee at Wayne State University.
(§2) Measurement of ATP. Human C-peptide (American Peptide Co., Sunnyvale, Calif.), 0.25 mg (MW=3020 g/mol), was dissolved in […] of purified water (18.2 megaohm) to yield a concentration of 83 μM. […] The resulting chemluminescence reaction flowed through a final potion of fused-silica microbore tubing that was placed over a photomultiplier tube, where the emission was detected. The resultant current was measured as a potential by a data acquisition board operated by a program written with the LabView software package (National Instruments, Austin, Tex.).
Introduction. […] Upon deformation in the tubing, the RBCs release ATP that is measured using a well-established chemiluminescence assay for ATP. The concentrations of RBC-derived ATP are measured in the presence and absence of synthetic C-peptide.
C-Peptide-Induced Release of ATP. RBCs obtained from rabbits are pumped through microbore tubing having an inside diameter of 50 μm and the resultant ATP released by the cells upon deformation in the tubing is measured. […] Another aliquot from the same RBC sample is incubated in 1 nM C-peptide and the resultant ATP release measured every 2 h for a period up to 6 h. […] As shown, the ATP release (determined by a chemiluminescence assay) from those cells incubated in the c-peptide increased approximately 2.9 times over a period of […]. […] If cell lysis were occurring, the glybenclamide would have no affect on the measured ATP as it would be present in extracellular form whether or not glybenclamide was introduced to the RBCs. […]

RBCs [1] = test: Cell lysis control: RBC solutions measured under non-flow conditions with a luminometer; type: cell-based; conditions: 200 μL RBC solution and 200 μL luciferin/luciferase solution
Description: To ensure that the resulting increase in ATP release was due to C-peptide interacting with the RBCs and not cell lyses, the RBC solutions were measured under non-flow conditions using a luminometer with 200 μL of the RBC solution and 200 μL of the luciferin/luciferase solution. […] To ensure that lysis was not occurring in the tubing, a solution of 0.01 M glybenclamide was prepared by adding 49 mg of glybenclamide (Sigma) to 2 mL of a 0.1 M solution of sodium hydroxide. To this, 7.94 mL of a dextrose solution (1 g dextrose in 20 mL of purified water) was added. The mixture was heated carefully to 52° C. until all of the glybenclamide was dissolved. Once the solute was completely dissolved, 1 mL of this solution was added to 9 mL of PSS, resulting in a solution with a concentration 0.001 M. From this diluted solution, 2.5 mL were added to 2.5 mL of 7% hematocrit RBC solution, resulting in a 3.5% hematocrit solution of RBCs. This solution was allowed to incubate for 15 minutes. As a comparison, 2.5 mL of wash buffer without glybenclamide was added to 2.5 mL of 7% hematocrit RBCs. After 15 minutes, the RBC solutions were assayed.

diabetic human RBCs = test: ATP release from RBCs of patients with type II diabetes; type: cell-based; conditions: n=7; for ATP release: diabetic human RBCs, ±SEM, FIG. 2
Description: as §1
as §2, with “μM. Next, an appropriate volume of this C-peptide solution was added to 10 mL of a 7% solution of RBCs to create a solution containing the C-peptide at concentrations in the 1-5 nM range.” for “μM.”, “Tex.). […]” for “Tex.).”

RBCs [2] = test: Loss of ATP-release bioactivity of C-peptide preparation in water (repeats of Experiments 1 and 2); type: cell-based
[3] = Electrospray ionization mass spectrometry of C-peptide and metal adducts in aqueous solution; conditions: ESI-MS
Description: Mass Spectrometric Analysis of Metal-Peptide Binding.
Specifically, the mass spectrum shown in FIG. 3a is that of peptide prepared in water and analyzed within 0.5 h of preparation. In 3a, the [M+3H]^3+ peak is present as are other forms of the peptide with sodium atoms, potassium atoms, or a combination thereof.

- effect on the C-peptide-induced increase in ATP release (rabbit RBCs; RBCs incubated in glybenclamide): can be inhibited
Compound: COc1ccc(Cl)cc1C(=O)NCCc1ccc(S(=O)(=O)NC(=O)NC2CCCCC2)cc1 [glybenclamide]

Compound: C-peptide
- luminescence signal under non-flow conditions (cell lysis check) (RBCs [1]): No detectable signals were obtained
- restoration of ATP release levels (diabetic human RBCs; RBCs of patients with type II diabetes, compared with healthy non-diabetic controls): restore these release levels to a value that is statistically equivalent to that of healthy, non-diabetic control patients
- ATP release (diabetic human RBCs; after 6 hours of incubation with freshly prepared C-peptide preparation): 256.1 ± 38.7 nM
- ATP release (diabetic human RBCs; at 0 hours, freshly prepared C-peptide preparation): 63.6 ± 12.6 nM
- time to loss of bioactivity after preparation in water (RBCs [2]): 24 to 36 h
- ability to induce ATP release from deformed RBCs (rabbit RBCs; C-peptide solution kept at 4° C. for >30 days): no longer has the ability to induce ATP release from deformed RBCs
- increase in ATP release (rabbit RBCs; rabbit RBCs, 1 nM C-peptide, over a period of 8 h, normalized values, FIG. 1): approximately 2.9 times
- increase in ATP release versus control (buffer without C-peptide) (rabbit RBCs; rabbit RBCs, 1 nM C-peptide, over the 6 h period): nearly three times that of the RBCs incubated with a control
- time in solution without degradation or cleavage [3]: > 30 days
